Columns and labels:
[1] = system: NCI-H226 cells; assay: Proliferation and cell viability assay, CellTiter-Glo 2.0 (CTG); assay type: cell-based, human; details: 144 hrs
Procedure: (§1) Cell proliferation of a TEAD dependent NF2-null mesothelioma cell line, NCI-H226 was assayed using two different protocols. Results were confirmed in two different TEAD-non-dependent lung cancer cell lines, H23 and H28, were used as non-responsive controls, as indicated:
a) CellTiter-Glo® 2.0 (Promega #G9243). The effect of the TEAD inhibitors disclosed herein on cell proliferation was determined in TEAD1-genetically dependent cell line NCI-H226 (responder cell line) and TEAD-independent cell lines (NCI-H23, HEK293T), as non-responder, negative control. Cells were seeded in 96-well plates (Thermo Scientific #167008) in growth media (RPMI-1640, Gibco #61870-010) for NCI-H226 and NCI-H23 or DMEM (Gibco #31966-021, HEK293T) with […] Heat Inactivated Fetal Bovine Serum (Gibco 10500-064) at 800 (NCI-H226 and HEK-293T) or 2000 (NCI-H23) cells per well at 37° C., […], humidified incubator; 24 hours later, fresh growth media containing test compound or DMSO vehicle was added and incubated with the cells for 144 hrs. TEAD inhibitor stocks were made at a 1000× fold excess in DMSO, and a dose response test compound dose range of 10,000 to 0.1 nM was used. Each treatment was carried out in triplicate. After 144 hrs of treatment, relative cell viability numbers were determined using the CellTiter-Glo 2.0 assay following the manufacturer's instructions. Test plates and CellTiter-Glo 2.0 reagent were allowed to equilibrate to room temperature. CellTiter-Glo 2.0 reagent was added at 1:1 reagent to media ratio to the 96-well cell plates, plates were placed on a plate shaker for 2 minutes and then incubated at room temperature for a further 10 minutes to allow complete cell lysis to occur. The mix was then transferred to white, 96-well luminometer assay plates (Greiner Bio One #655075). Luminescence was quantified using a CLARIOStar Plus multi-mode plate reader (BMG Labtech) in luminescence detection mode with the recommended settings (ultra-Glo pre-set: emission 545-50 nm with autofocus and enhanced dynamic range on). Relative cell density was expressed as a function of inhibitor concentration, with respect to DMSO-only control wells. Data where plotted using GraphPad Prism and IC50 values for the biological effect were calculated using the EC50 non-linear fit function using a sigmoidal, 4-parameter logistic, least squares fit with no constraints.
(§2) For IC50 and EC50 data “A” indicates a value of less than 0.2 μM; the symbol “B” indicates a value in the range of from 0.2 μM up to 1 μM; and the symbol “C” indicates a value of greater than 1 μM. ND: no data.

[2] = system: NCI-H226 cells; assay: Proliferation and cell viability assay, Cell Titer One; assay type: cell-based, human; details: Cell Titer One assay, 6 days
Procedure: as §1
b) Cell Titer One (Promega, #G3582). The effect of the TEAD inhibitors disclosed herein on cell proliferation was also determined using the Promega Substrate Cell Titer Aqueous One Solution Reagent. The TEAD inhibitors were evaluated for the effects on cell proliferation responder (H226) and non-responder negative control cancer cell lines (CAMA1, H28), as well as non-transformed normal human cells (HUVEC, NHDF). Dissociated cells were resuspend in media (depending on cell line, either in DMEM, RPMI, or EMEM all with 10% FBS, with gentamicin as an antibiotic). Cells were seeded at 100 μL/well at 750 cells per well in 96-well plates and allowed to settle and attach. After an incubation of 24 hrs (37° C., 5% CO2, humidified incubator), 100 μL of test compound-containing media was added. A dilution series of 2000× concentrated stock of test compounds was prepared in DMSO, for final concentrations from 0.1 to 10,000 nM. After addition of test compound-containing media, cells were incubated for 6 days at 37° C., 5% CO2, humidified incubators). To measure cell density, 20 μL of Promega Substrate Cell Titer 96 Aqueous One Solution Reagent (Promega, #G3582) to each well was added according to the manufacturer's instructions. Plates were incubated at 37° C. for usually 3-8 hrs, to reach in the control cells (without compound) an OD of 1.5 at 490 nm. The OD was measured using Vmax [Molecular Devices] spectrophotometer plate reader. Media only-wells were used as background controls and cell densities normalized to DMSO vehicle control. EC50 were taken as the concentration achieving 50% of maximal growth inhibition.
as §2

[3] = Homo sapiens, NCI-H226, responder cell line

Row | Structure (SMILES) | EC50 [1, 3] | IC50 ([2]; Homo sapiens, NCI-H226, 144 h) | EC50 ([1]; responder cell line) | IC50 [2]
1 | CC1(c2ccc(Nc3ccc(C(F)(F)F)cc3)c(Br)c2)CCNC1=O (stereo not shown) [Compound 24] | < 200 nM |  |  | 
2 | CC1(c2ccc(Nc3ccc(C(F)(F)F)cc3)c(-c3cccnn3)c2)CCNC1=O (stereo not shown) [Compound 12, 3-methyl-3-(3-(pyridazin-3-yl)-4-((4-(trifluoromethyl)phenyl)amino)phenyl) pyrrolidin-2-one] | < 200 nM | > 1000 nM |  | 
3 | Cn1cnc(-c2cc([C@@]3(C)C(=O)CNC3=O)ccc2Nc2ccc(C(F)(F)F)cc2)c1 (stereo in doubt) [Compound 17, 3-methyl-3-(3-(1-methyl-1H-imidazol-4-yl)-4-((4-(trifluoromethyl)phenyl)amino)phenyl) pyrrolidine-2,4-dione] | < 200 nM |  |  | 
4 | CC(=O)c1ccc(Nc2ccc(C(F)(F)F)cc2)c(-c2cn(C)cn2)c1 [Compound 23, 1-(3-(1-methyl-1H-imidazol-4-yl)-4-((4-(trifluoromethyl)phenyl)amino)phenyl) ethan-1-one] | < 200 nM |  |  | 
5 | Cn1cnc(-c2cc([C@@]3(C)CCNC3=O)ccc2Nc2ccc(C(F)(F)F)cc2)c1 (single isomer, unassigned) [Compound 6, 3-methyl-3-(3-(1-methyl-1H-imidazol-4-yl)-4-((4-(trifluoromethyl)phenyl)amino)phenyl)pyrrolidin-2-one] |  |  | < 200 nM | 200 to 1000 nM
6 | Cn1cnc(-c2cc(C3(C)NC(=O)NC3=O)ccc2Nc2ccc(C(F)(F)F)cc2)c1 (single isomer, unassigned) [Compound 14, 5-methyl-5-(3-(1-methyl-1H-imidazol-4-yl)-4-((4-(trifluoromethyl)phenyl)amino)phenyl)imidazolidine-2,4-dione] | < 200 nM |  |  | > 1000 nM
7 | Cn1cnc(-c2cc(C3(C)C(=O)CNC3=O)ccc2Nc2ccc(C(F)(F)F)cc2)c1 (racemic) [Compound 16, 3-methyl-3-(3-(1-methyl-1H-imidazol-4-yl)-4-((4-(trifluoromethyl)phenyl)amino)phenyl) pyrrolidine-2,4-dione] | < 200 nM |  |  | 
8 | Cn1cnc(-c2cc([C@@]3(C)C(=O)CNC3=O)ccc2Nc2ccc(C(F)(F)F)cc2)c1 (stereo in doubt) [Compound 18, 3-methyl-3-(3-(1-methyl-1H-imidazol-4-yl)-4-((4-(trifluoromethyl)phenyl)amino)phenyl) pyrrolidine-2,4-dione] |  |  | < 200 nM | 

Second part, the compound after the results:

Row | EC50 [1, 3] | IC50 ([2]; Homo sapiens, NCI-H226, 144 h) | EC50 ([1]; responder cell line) | IC50 [2] | Structure (SMILES)
9 | < 200 nM | < 200 nM |  |  | CC1(c2ccc(Nc3ccc(C(F)(F)F)cc3)c(-c3ncco3)c2)CCNC1=O (stereo not shown) [Compound 10, 3-methyl-3-(3-(oxazol-2-yl)-4-((4-(trifluoromethyl)phenyl)amino)phenyl) pyrrolidin-2-one]
10 | < 200 nM | > 1000 nM |  |  | CC1(c2ccc(Nc3ccc(C(F)(F)F)cc3)c(-c3cnccn3)c2)CCNC1=O (stereo not shown) [Compound 13, 3-methyl-3-(3-(pyrazin-2-yl)-4-((4-(trifluoromethyl)phenyl)amino)phenyl) pyrrolidin-2-one]
11 | 200 to 1000 nM |  |  |  | Cn1cnc(-c2cc(C3(C)C(=O)NCC3O)ccc2Nc2ccc(C(F)(F)F)cc2)c1 (stereo not shown) [Compound 19, 4-hydroxy-3-methyl-3-(3-(1-methyl-1H-imidazol-4-yl)-4-((4-(trifluoromethyl)phenyl)amino)phenyl) pyrrolidin-2-one]
12 | < 200 nM | < 200 nM |  |  | Cn1nnc(-c2cc(C3(C)CCNC3=O)ccc2Nc2ccc(C(F)(F)F)cc2)n1 (racemic) [Compound 11, 3-methyl-3-(3-(2-methyl-2H-tetrazol-5-yl)-4-((4-(trifluoromethyl)phenyl)amino)phenyl) pyrrolidin-2-one]
13 | < 200 nM |  |  |  | Cn1cnc(-c2cc(C3(C)CCNC3=O)ccc2Nc2cccc(C(F)(F)F)c2)c1 (stereo not shown) [Compound 22, 3-methyl-3-(3-(1-methyl-1H-imidazol-4-yl)-4-((3-(trifluoromethyl)phenyl)amino)phenyl) pyrrolidin-2-one]
